target: T1, USP14 (Homo sapiens (Human), UniProt P54578); assay: Usp14 inhibition assay (Example 5A, A-series compounds); format: biochemical; conditions: average value from a minimum of two experimental determinations; read-out: Usp14 IC50 Category
From the text: Example 5A: Usp14 Inhibition Assay
(§1) The IC50 values in the Table below represent the average value from a minimum of two experimental determinations.

T1 sequence (P54578 whole entry, looked up): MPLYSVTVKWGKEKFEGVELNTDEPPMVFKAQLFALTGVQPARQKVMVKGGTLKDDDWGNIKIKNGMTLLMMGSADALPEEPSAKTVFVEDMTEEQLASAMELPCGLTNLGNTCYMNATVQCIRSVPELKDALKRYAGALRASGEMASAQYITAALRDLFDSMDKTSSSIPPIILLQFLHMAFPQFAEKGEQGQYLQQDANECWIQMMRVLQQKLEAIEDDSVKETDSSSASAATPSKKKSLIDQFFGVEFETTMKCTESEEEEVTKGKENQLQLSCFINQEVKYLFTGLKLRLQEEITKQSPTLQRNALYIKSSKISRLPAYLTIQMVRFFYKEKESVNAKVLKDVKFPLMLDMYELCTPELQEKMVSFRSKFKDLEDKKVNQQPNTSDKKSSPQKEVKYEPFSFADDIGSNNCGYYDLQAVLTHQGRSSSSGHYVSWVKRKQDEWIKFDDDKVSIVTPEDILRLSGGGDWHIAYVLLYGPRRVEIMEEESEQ

Compared with `Cc1c(C(=O)CN2[C@@H]3CC[C@H]2C[C@@H](O)C3)c2ccc(CC3COC3)cc2n1-c1ccc(Cl)cc1` [Example 22A, 1-(1-(4-Chlorophenyl)-2-methyl-6-(oxetan-3-ylmethyl)-1H-indol-3-yl)-2-((1R,3r,5S)-3-hydroxy-8-azabicyclo[3.2.1]octan-8-yl)ethan-1-one], `Cc1c(C(=O)CN2C3CCC2CC(O)C3)c2ccc(CC3COC3)cc2n1-c1ccc(Cl)cc1` [Example 27A, 1-(1-(4-Chlorophenyl)-2-methyl-6-(oxetan-3-ylmethyl)-1H-indol-3-yl)-2-((1R,3S,5S)-3-hydroxy-8-azabicyclo[3.2.1]octan-8-yl)ethan-1-one] is higher in IC50: 50 to 100 nM for the first, greater than 100 nM for the second. The first is the more potent here.

`Cc1c(C(=O)CN2[C@H]3CC[C@@H]2[C@@H](O)C3)c2ccc(CCS(C)(=O)=O)cc2n1-c1ccc(Cl)cc1` [Example 6A, 1-(1-(4-Chlorophenyl)-2-methyl-6-(2-(methylsulfonyl)ethyl)-1H-indol-3-yl)-2-((1R,2S,4S)-2-hydroxy-7-azabicyclo[2.2.1]heptan-7-yl)ethan-1-one] and `Cc1c(C(=O)CN2C3CCC2CC(O)C3)c2ccc(CCS(C)(=O)=O)cc2n1-c1ccc(Cl)cc1` [Example 5A, 1-(1-(4-Chlorophenyl)-2-methyl-6-(2-(methylsulfonyl)ethyl)-1H-indol-3-yl)-2-((1R,3S,5S)-3-hydroxy-8-azabicyclo[3.2.1]octan-8-yl)ethan-1-one] cannot be ordered by IC50: less than 50 nM for the first, less than 50 nM for the second.

Going from `Cc1c(C(=O)CN2[C@@H]3CC[C@H]2C[C@H](O)C3)c2ccc(CCC3=NCCN3C)cc2n1-c1ccc(Cl)cc1` [Example 28A, 1-(1-(4-Chlorophenyl)-2-methyl-6-(2-(1-methyl-4,5-dihydro-1H-imidazol-2-yl)ethyl)-1H-indol-3-yl)-2-((1R,3S,5S)-3-hydroxy-8-azabicyclo[3.2.1]octan-8-yl)ethan-1-one] to `Cc1c(C(=O)CN2C3CCC2CC(O)C3)c2ccc(CCC#N)cc2n1-c1ccc(Cl)cc1` [Example 20A, 3-(1-(4-Chlorophenyl)-3-(2-((1R,3R,5S)-3-hydroxy-8-azabicyclo[3.2.1]octan-8-yl)acetyl)-2-methyl-1H-indol-6-yl)propanenitrile], the IC50 rises from less than 50 nM to greater than 100 nM.

Compared with `Cc1c(C(=O)CN2C3CC[C@@H]2C[C@](O)(C(C)(C)C)C3)c2ccc(CCC#N)cc2n1-c1ccc(Cl)cc1` (stereo in doubt) [Example 31A, 3-(3-(2-(3-(tert-Butyl)-3-hydroxy-8-azabicyclo[3.2.1]octan-8-yl)acetyl)-1-(4-chlorophenyl)-2-methyl-1H-indol-6-yl)propanenitrile], `Cc1c(C(=O)CN2[C@@H]3CC[C@H]2C[C@H](O)C3)c2ccc(CCC#N)cc2n1-c1ccc(Cl)cc1` [Example 21A, 3-(1-(4-Chlorophenyl)-3-(2-((1R,3S,5S)-3-hydroxy-8-azabicyclo[3.2.1]octan-8-yl)acetyl)-2-methyl-1H-indol-6-yl)propanenitrile] is lower in IC50: greater than 100 nM for the first, 50 to 100 nM for the second. The second is the more potent here.

Compared with `Cc1c(C(=O)CN2C3CCC2CC3)c2ccc(CC#N)cc2n1-c1ccc(Cl)cc1` [Example 30A], `Cc1c(C(=O)CN2C3CCC2CC3)c2ccc(CCCC#N)cc2n1-c1ccc(Cl)cc1` [Example 17A, 4-(3-(2-(7-Azabicyclo[2.2.1]heptan-7-yl)acetyl)-1-(4-chlorophenyl)-2-methyl-1H-indol-6-yl)butanenitrile] is lower in IC50: 50 to 100 nM for the first, less than 50 nM for the second.

Compared with `Cc1c(C(=O)CN2C3CCC2CC(O)C3)c2ccc(CCCC#N)cc2n1-c1ccc(Cl)cc1` (stereo not shown) [Example 25A, 4-(1-(4-Chlorophenyl)-3-(2-(3-hydroxy-8-azabicyclo[3.2.1]octan-8-yl)acetyl)-2-methyl-1H-indol-6-yl)butanenitrile], `Cc1c(C(=O)CN2C3CCC2[C@@H](O)C3)c2ccc(CCCC#N)cc2n1-c1ccc(Cl)cc1` (mixture of isomers) [Example 18A, (±)-4-(1-(4-Chlorophenyl)-3-(2-((2S)-2-hydroxy-7-azabicyclo[2.2.1]heptan-7-yl)acetyl)-2-methyl-1H-indol-6-yl)butanenitrile] is lower in IC50: greater than 100 nM for the first, less than 50 nM for the second. The second is the more potent here.

`Cc1c(C(=O)CN2C3CCC2C(O)C3)c2ccc(CC3COC3)cc2n1-c1ccc(Cl)cc1` (stereo in doubt) [Example 13A, 1-(1-(4-Chlorophenyl)-2-methyl-6-(oxetan-3-ylmethyl)-1H-indol-3-yl)-2-((1R,2R,4S)-2-hydroxy-7-azabicyclo[2.2.1]heptan-7-yl)ethan-1-one] and `Cc1c(C(=O)CN2C3CCC2CC3)c2ccc(CC3COC3)cc2n1-c1ccc(Cl)cc1` [Example 11A, 2-(7-Azabicyclo[2.2.1]heptan-7-yl)-1-(1-(4-chlorophenyl)-2-methyl-6-(oxetan-3-ylmethyl)-1H-indol-3-yl)ethan-1-one] cannot be ordered by IC50: less than 50 nM for the first, less than 50 nM for the second.

Compared with `Cc1c(C(=O)CN2C3CCC2CC3)c2ccc(CS(C)(=O)=O)cc2n1-c1ccc(Cl)cc1` [Example 3A, 2-(7-Azabicyclo[2.2.1]heptan-7-yl)-1-(1-(4-chlorophenyl)-2-methyl-6-((methylsulfonyl)methyl)-1H-indol-3-yl)ethan-1-one], `Cc1c(C(=O)CN2C3CCC2CC3)c2ccc(CCS(C)(=O)=O)cc2n1-c1ccc(Cl)cc1` [Example 1A, 2-(7-Azabicyclo[2.2.1]heptan-7-yl)-1-(1-(4-chlorophenyl)-2-methyl-6-(2-(methylsulfonyl)ethyl)-1H-indol-3-yl)ethan-1-one] is lower in IC50: 50 to 100 nM for the first, less than 50 nM for the second. The second is the more potent here.

First: Cc1c(C(=O)CN2[C@@H]3CC[C@H]2C[C@H](O)C3)c2ccc(CCS(=O)(=O)C3CC3)cc2n1-c1ccc(Cl)cc1 [Example 24A, 1-(1-(4-Chlorophenyl)-6-(2-(cyclopropylsulfonyl)ethyl)-2-methyl-1H-indol-3-yl)-2-((1R,3s,5S)-3-hydroxy-8-azabicyclo[3.2.1]octan-8-yl)ethan-1-one]
Second: Cc1c(C(=O)CN2C3CCC2CC(O)C3)c2ccc(CCS(=O)(=O)C3CC3)cc2n1-c1ccc(Cl)cc1 [Example 23A, 1-(1-(4-Chlorophenyl)-6-(2-(cyclopropylsulfonyl)ethyl)-2-methyl-1H-indol-3-yl)-2-((1R,3R,5S)-3-hydroxy-8-azabicyclo[3.2.1]octan-8-yl)ethan-1-one]
The IC50 of the first is higher: 50 to 100 nM for the first, less than 50 nM for the second. The second is the more potent here.

`Cc1c(C(=O)CN2C3CCC2CC3)c2ccc(CCS(=O)(=O)C3CC3)cc2n1-c1ccc(Cl)cc1` [Example 16A, 2-(7-Azabicyclo[2.2.1]heptan-7-yl)-1-(1-(4-chlorophenyl)-6-(2-(cyclopropylsulfonyl)ethyl)-2-methyl-1H-indol-3-yl)ethan-1-one] and `Cc1c(C(=O)CN2C3CCC2[C@@H](O)C3)c2ccc(CCC#N)cc2n1-c1ccc(Cl)cc1` (mixture of isomers) [Example 10A, (±)-3-(1-(4-Chlorophenyl)-3-(2-((2S)-2-hydroxy-7-azabicyclo[2.2.1]heptan-7-yl)acetyl)-2-methyl-1H-indol-6-yl)propanenitrile] cannot be ordered by IC50: less than 50 nM for the first, less than 50 nM for the second.

target: T1, USP14; assay: Usp14 inhibition assay (Example 57B, B-series compounds); format: biochemical; conditions: IC50 class; average value from a minimum of two experimental determinations
From the text: Example 57B: Usp14 Inhibition Assay
as §1

Compared with `Cc1cc(C(=O)CN2C3CCC2[C@@H](O)C3)c(C)n1-c1cc(F)c(Cl)c(F)c1` (mixture of isomers) [Example 118B, (±)-1-(1-(4-Chloro-3,5-difluorophenyl)-2,5-dimethyl-1H-pyrrol-3-yl)-2-((2R)-2-hydroxy-7-azabicyclo[2.2.1]heptan-7-yl)ethan-1-one], `Cc1cc(C(=O)CN2[C@H]3CCC[C@@H]2[C@@H](O)C3)c(C)n1-c1ccc(C#N)cc1` (racemic) [Example 83B, (±)-4-(3-(2-((1S,5R,6S)-6-Hydroxy-8-azabicyclo[3.2.1]octan-8-yl)acetyl)-2,5-dimethyl-1H-pyrrol-1-yl)benzonitrile] is lower in IC50: greater than 500 nM for the first, 50 to 500 nM for the second. The second is the more potent here.

Reference: US11560385B2, “Proteasome activity enhancing compounds” (Proteostasis Therapeutics, Inc., priority 2018, dated 2023)
